Active and inactive are the calls of the source.
Experiments:
[1] = Luminescence Cell-Based Dose Response HTS to Identify Inhibitors of Luciferase Translation or Activity in H4-C Neuroglioblastoma Cells. [Related pubchem assays: 1813 (Primary HTS), 1827 (Project Summary)]; assay type: functional
[2] = Luminescence Cell-Based Dose Response HTS to Identify Activators of Luciferase Translation or Activity in H4-C Neuroglioblastoma Cells. [Related pubchem assays: 1829 (Project Summary), 1814 (Primary HTS)]; assay type: functional
[3] = inhibitors of firefly luciferase expression or activity, dose response, H4 neuroglioma cells, luminescence (AID 1990); assay type: functional, cell-based
[4] = Luminescence Cell-Based Dose Retest to Confirm Activators of 5'UTR Stem-Loop Driven Alpha-Synuclein mRNA Translation in H4 Neuroglioblastoma Cells. [Related pubchem assays (depositor defined):AID1813, AID1829]; assay type: functional
[5] = Luminescence Cell-Based Dose Response HTS to Identify Activators of 5'UTR Stem-Loop Driven Prion Protein mRNA Translation in H4-C Neuroglioblastoma Cells. [Related pubchem assays: 1829 (Project Summary), 1814 (Primary HTS)]; assay type: functional
[6] = Luminescence Cell-Based Dose HTS Response to Identify Inhibitors of 5'UTR Stem-Loop Driven Prion Protein mRNA Translation in H4-C Neuroglioblastoma Cells. [Related pubchem assays (depositor defined):AID1814, AID1827]; assay type: functional
[7] = Luminescence Cell-Based Dose Response HTS to Identify Inhibitors of 5'UTR Stem-Loop Driven Prion Protein mRNA Translation in H4 Neuroglioblastoma Cells. [Related pubchem assays: 1827 (Project Summary), 1813 (Primary HTS)]; assay type: functional
[8] = inhibitors of SNCA 5'UTR-driven reporter translation, confirmation, H4 neuroglioma cells, luminescence (AID 1988); assay type: functional, cell-based
[9] = Luminescence Cell-Based Dose Confirmation HTS to Identify Inhibitors of 5'UTR Stem-Loop Driven Alpha-Synuclein mRNA Translation in H4 Neuroglioblastoma Cells. [Related pubchem assays: 1827 (Project Summary), 1813 (Primary HTS)]; assay type: functional
[10] = cytotoxicity in HEK-293T cells, dose response, cytotoxicity control for TCR NF-kB inhibitor project, luminescence, T-cell screen hits (AID 489026); assay type: functional, cell-based;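 also: cells exposed to compound about 14 hours before the viability readout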
Cytochrome P450 2C9 = Cytochrome P450 2C9 (Homo sapiens, UniProt P11712)
T-cell = test: inhibitors of CD8+ T cell–vesicle binding, dose response, mouse 2C CD8+ T cells, flow cytometry (AID 485284); assay type: functional
Coagulation factor XII = molecular target: T1, Coagulation factor XII (Homo sapiens, UniProt P00748); test: Factor XIIa Dose Response Confirmation from Single Well HTS. [Related pubchem assays (depositor defined):AID701]; assay type: functional
T1 sequence (P00748 whole entry): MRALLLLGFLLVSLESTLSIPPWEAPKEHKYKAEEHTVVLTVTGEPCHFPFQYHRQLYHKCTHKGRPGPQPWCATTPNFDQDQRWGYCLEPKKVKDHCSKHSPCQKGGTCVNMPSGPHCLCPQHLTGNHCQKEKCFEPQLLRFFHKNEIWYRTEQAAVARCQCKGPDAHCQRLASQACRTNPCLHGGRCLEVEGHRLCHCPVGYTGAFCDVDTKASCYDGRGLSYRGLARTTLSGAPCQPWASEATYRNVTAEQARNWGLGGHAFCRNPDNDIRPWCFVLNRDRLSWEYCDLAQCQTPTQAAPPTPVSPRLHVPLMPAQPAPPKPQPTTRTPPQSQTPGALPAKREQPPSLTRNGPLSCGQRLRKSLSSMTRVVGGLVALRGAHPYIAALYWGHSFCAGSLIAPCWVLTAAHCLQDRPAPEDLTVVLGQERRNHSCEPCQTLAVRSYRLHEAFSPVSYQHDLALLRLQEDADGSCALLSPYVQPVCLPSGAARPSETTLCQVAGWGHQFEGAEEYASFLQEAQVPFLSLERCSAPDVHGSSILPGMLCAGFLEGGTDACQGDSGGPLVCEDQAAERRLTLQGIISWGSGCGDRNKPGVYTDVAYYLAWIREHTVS

HEK293 [11] = test: NOD1 signaling inhibitors, primary screen, cell-based, luminescence, uHTS (AID 1578); assay type: functional; conditions: Homo sapiens
HEK293 [12] = test: cells; assay type: functional, cell-based; conditions: Homo sapiens
HEK293 [13] = test: cells; assay type: functional, cell-based; conditions: Homo sapiens; remark: listed apart in the source
[14] = molecular target: T2, Nucleotide-binding oligomerization domain-containing protein 2 (Homo sapiens, UniProt Q9HC29); test: NOD2 signaling inhibitors, cell-based, luminescence, uHTS, HEK293 (AID 1566); assay type: functional
HEK293 [15] = test: NOD2 signaling inhibitors in MDP-stimulated cells, cell-based, uHTS, luminescence (AID 2001); assay type: functional; conditions: Homo sapiens
HEK293 [16] = test: cells; assay type: functional, cell-based; conditions: Homo sapiens; remark: listed apart in the source
Tumor necrosis factor = Tumor necrosis factor (Homo sapiens, UniProt P01375); test: TNFa-triggered NF-kB activation inhibitors, SAR follow-up, cell-based, revised (AID 2337); assay type: functional
[17] = molecular target: Nucleotide-binding oligomerization domain-containing protein 1 (Homo sapiens, UniProt Q9Y239); test: NOD1 signaling inhibitors, SAR follow-up, revised (AID 2333); assay type: functional
[18] = molecular target: T2, Nucleotide-binding oligomerization domain-containing protein 2; test: PubChem AID 2334; assay type: functional
HEK293 [19] = test: cells; conditions: Homo sapiens

T2 sequence (Q9HC29 whole entry, the tested form may be a part): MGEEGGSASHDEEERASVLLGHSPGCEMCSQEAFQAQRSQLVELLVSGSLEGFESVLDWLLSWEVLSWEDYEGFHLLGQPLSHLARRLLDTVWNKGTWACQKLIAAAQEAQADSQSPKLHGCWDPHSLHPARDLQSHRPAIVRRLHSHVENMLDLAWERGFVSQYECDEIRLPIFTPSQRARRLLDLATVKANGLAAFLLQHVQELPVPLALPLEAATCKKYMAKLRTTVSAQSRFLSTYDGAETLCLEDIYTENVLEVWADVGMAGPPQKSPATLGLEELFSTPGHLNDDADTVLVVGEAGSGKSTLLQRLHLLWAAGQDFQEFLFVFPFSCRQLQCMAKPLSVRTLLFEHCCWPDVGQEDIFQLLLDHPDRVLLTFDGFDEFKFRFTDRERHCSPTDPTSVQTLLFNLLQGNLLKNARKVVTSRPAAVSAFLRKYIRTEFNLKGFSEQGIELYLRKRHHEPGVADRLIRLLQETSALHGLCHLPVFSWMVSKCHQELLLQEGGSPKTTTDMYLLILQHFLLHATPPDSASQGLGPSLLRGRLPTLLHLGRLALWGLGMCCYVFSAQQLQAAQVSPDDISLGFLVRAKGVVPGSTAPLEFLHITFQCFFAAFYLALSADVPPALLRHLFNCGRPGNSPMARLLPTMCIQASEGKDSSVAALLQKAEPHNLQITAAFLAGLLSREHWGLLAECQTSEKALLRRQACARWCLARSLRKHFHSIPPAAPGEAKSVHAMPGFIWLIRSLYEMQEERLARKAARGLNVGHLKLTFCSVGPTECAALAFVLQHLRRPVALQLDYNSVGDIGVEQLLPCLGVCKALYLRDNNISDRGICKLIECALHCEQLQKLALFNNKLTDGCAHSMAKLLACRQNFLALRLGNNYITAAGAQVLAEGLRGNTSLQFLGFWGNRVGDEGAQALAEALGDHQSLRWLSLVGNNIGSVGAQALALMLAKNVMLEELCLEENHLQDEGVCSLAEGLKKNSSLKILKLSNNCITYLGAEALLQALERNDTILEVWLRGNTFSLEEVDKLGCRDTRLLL
Sequence of Nucleotide-binding oligomerization domain-containing protein 1 (Q9Y239 whole entry, the tested form may be a part): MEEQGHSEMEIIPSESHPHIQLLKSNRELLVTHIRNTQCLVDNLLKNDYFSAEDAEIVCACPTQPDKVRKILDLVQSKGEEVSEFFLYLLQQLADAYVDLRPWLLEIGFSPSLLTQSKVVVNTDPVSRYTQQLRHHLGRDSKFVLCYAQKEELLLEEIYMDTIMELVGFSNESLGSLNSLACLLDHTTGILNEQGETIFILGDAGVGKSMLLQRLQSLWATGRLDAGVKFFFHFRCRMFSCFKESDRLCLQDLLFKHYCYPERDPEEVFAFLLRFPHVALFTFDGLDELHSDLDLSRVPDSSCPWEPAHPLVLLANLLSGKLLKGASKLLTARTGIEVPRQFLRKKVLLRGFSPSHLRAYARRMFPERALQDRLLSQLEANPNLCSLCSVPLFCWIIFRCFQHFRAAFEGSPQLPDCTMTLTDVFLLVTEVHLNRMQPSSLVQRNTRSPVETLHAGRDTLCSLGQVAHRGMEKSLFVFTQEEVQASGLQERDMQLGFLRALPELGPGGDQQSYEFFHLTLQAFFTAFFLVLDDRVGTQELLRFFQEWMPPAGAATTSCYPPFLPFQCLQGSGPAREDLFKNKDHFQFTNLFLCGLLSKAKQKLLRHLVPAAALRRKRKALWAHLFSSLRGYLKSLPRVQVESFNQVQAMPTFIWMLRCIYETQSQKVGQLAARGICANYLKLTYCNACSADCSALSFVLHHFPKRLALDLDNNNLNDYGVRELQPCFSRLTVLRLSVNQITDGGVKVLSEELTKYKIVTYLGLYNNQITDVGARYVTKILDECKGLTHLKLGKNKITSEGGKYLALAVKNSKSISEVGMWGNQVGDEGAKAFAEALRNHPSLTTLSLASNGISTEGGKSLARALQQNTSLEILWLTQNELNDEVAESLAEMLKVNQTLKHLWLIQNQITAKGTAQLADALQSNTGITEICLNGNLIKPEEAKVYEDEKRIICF
Sequence of Cytochrome P450 2C9 (P11712 whole entry): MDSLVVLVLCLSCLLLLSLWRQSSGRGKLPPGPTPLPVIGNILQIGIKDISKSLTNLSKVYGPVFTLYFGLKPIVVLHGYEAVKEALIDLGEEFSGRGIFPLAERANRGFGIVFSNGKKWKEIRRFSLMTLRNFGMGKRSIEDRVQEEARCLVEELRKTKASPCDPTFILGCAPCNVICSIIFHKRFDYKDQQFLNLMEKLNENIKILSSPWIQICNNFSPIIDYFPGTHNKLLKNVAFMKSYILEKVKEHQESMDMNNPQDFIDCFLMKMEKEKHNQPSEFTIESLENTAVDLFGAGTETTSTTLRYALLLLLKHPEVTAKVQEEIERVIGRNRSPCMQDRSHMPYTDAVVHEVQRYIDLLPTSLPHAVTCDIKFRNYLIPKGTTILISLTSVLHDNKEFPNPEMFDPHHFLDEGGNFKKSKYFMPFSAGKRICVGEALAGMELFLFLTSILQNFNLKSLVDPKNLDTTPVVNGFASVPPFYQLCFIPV
Sequence of Tumor necrosis factor (P01375 whole entry, the tested form may be a part): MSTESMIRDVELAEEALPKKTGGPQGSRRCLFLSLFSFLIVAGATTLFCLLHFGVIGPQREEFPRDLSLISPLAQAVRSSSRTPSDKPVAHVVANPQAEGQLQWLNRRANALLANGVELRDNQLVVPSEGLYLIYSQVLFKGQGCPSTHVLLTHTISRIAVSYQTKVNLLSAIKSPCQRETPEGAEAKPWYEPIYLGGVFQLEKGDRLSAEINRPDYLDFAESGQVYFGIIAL

## O=C(COc1ccccc1-c1ccccc1)N/N=C/c1cccc2ccccc12
[1]
  EC50: 0.85 µM (active)
[2]
  EC50: 0.921 µM (inconclusive)
[3]
  EC50: 11.5 µM (active)
[4]
  EC50: 1.84 µM (inconclusive)
[5]
  EC50: 0.695 µM (inconclusive)
[6]
  EC50: 1.76 µM (active)
[7]
  EC50: > 120 µM (not active)
[8]
  EC50: < 0.195 µM (active)
[9]
  EC50: 1.74 µM (active)
[10]
  IC50: > 80 µM (inactive)
Cytochrome P450 2C9
  AC50: 20 µM (inconclusive)

## CCC(C(=O)Nc1ccccc1)c1ccccc1 (stereo not drawn)
T-cell
  EC50: 0.0882 µM (active)

## CC1(C)c2ssc(=S)c2-c2ccccc2N1C(=O)c1ccco1
Coagulation factor XII
  IC50: > 50 µM (inactive)

## Cc1cc(Cl)ccc1OCC(=O)Nc1ccccc1NS(=O)(=O)c1cccs1
HEK293 [11]
  EC50: 5.15 µM (active)
HEK293 [12]
  IC50: > 20 µM (inactive)
HEK293 [13]
  IC50: > 20 µM (inactive)
[14]
  EC50: 6.8 µM (active)
HEK293 [15]
  IC50: 15.8 µM (inactive)
HEK293 [16]
  IC50: > 20 µM (inactive)
Tumor necrosis factor
  IC50: 12.3 µM (active)
[17]
  IC50: 4.55 µM (active)
[18]
  IC50: 8.21 µM (active)
HEK293 [19]
  IC50: > 20 µM (inactive)

From ChEMBL document CHEMBL1201862, “PubChem BioAssay data set” (2004)
